Counter-ions that a name gives are not always drawn. Like-named read-outs stand apart in the source and are kept apart here.
Assay: Rat oral pharmacokinetics (plasma eicosapentaenoic acid after oral gavage)
Format: in vivo
Details: Sprague-Dawley rats, oral gavage 40 mg/kg in 0.5% carboxymethyl cellulose, analyte EPA in plasma, mean of 6 rats
Description: Oral pharmacokinetic parameters of piperazine di-eicosapentaenoate, prepared by the procedure described in Example 2, were determined in Sprague-Dawley rats. Piperazine di-eicosapentaenoate was administered by oral gavage as an aqueous solution in 0.5% carboxymethyl cellulose to 6 Sprague-Dawley rats, 3 males and 3 females. Rats were dosed at 40 mg/kg. Blood samples were obtained from each rat by jugular vein catheter. […] Blood samples were centrifuged to separate red blood cells and the resulting plasma samples were analyzed for eicosapentaenoic acid. Calculated pharmacokinetic parameters shown below in Table 1 are mean values from 6 rats. […] Rats were dosed at 40 mg/kg. Blood samples were obtained from each rat by jugular vein catheter. […] Blood samples were centrifuged to separate red blood cells and the resulting plasma samples were analyzed for eicosapentaenoic acid. Calculated pharmacokinetic parameters shown below (Table 2) are mean values from 6 rats.

Row | Compound | AUC (0-24) (0-24 h) | Cmax | Tmax | AUC(0-t) (both sexes, rat, 0-24 h) | Cmax (both sexes, rat, read-out: Cmax) | Tmax (both sexes, rat, read-out: Tmax)
1 | CC/C=C\C/C=C\C/C=C\C/C=C\C/C=C\CCCC(=O)O.CC/C=C\C/C=C\C/C=C\C/C=C\C/C=C\CCCC(=O)O.NCCN [Ethylene diamine di-eicosapentaenoate, Ethane-1,2-diaminium di[(5Z,8Z,11Z,14Z,17Z)-icosa-5,8,11,14,17-pentaenoate]] | 275.29 µg·h/mL | 18370 ng/mL | 2.0 h |  |  | 
2 | CC/C=C\C/C=C\C/C=C\C/C=C\C/C=C\CCCC(=O)O [Piperazine di-eicosapentaenoate, Bis[(5Z,8Z,11Z,14Z,17Z)-icosa-5,8,11,14,17-pentaenoatel Piperazine Salt] |  |  |  | 135 µg·h/mL | 28200 ng/mL | 1 h

— patent publication US20140148464A1, “SALT FORMS OF FATTY ACIDS FOR THE TREATMENT OF DRY EYE” (Thetis Pharmaceuticals LLC, priority 2012, published 2014)
